These results are taken from PMC5510229, “BCAT1 controls metabolic reprogramming in activated human macrophages and is associated with inflammatory diseases” (Nature Communications, 2017).

The subject of assay [1] is human monocyte-derived macrophages (hMDMs). The assay can be described thus: qRT-PCR / Western blot of activation markers in hMDMs. Type of assay: cell-based. Conditions: 3 h. As to the method:
Figure 1 BCAT1 expression and inhibition in human macrophages. […] (b) Chemical structure of ERG240 and leucine. (c) Enzymatic activity of recombinant human BCAT1 and BCAT2 in presence of ERG240. (d) Relative expression of IRG1, HIF1A and IL1B measured by qRT-PCR in control, ERG240-treated (20 mM, 3 h), LPS treated (100 ng ml^−1, 3 h), and LPS+ERG240 treated (LPS, 100 ng ml^−1; ERG240, 20 mM for 3 h) hMDMs. ns, non-significant. All expression values are normalized to those obtained for HPRT gene expression. n=3 healthy donor hMDMs were used in each group. (e) Western blot analysis of IRG1, IL-1β, HIF-1α and beta-actin (ACTB) in control (untreated), ERG240-treated (20 mM, 3 h), LPS treated (100 ng ml^−1, 3 h) and LPS+ERG240 treated (LPS, 100 ng ml^−1; ERG240, 20 mM for 3 h) hMDMs. […]
hMDMs were lysed in Laemmli sample buffer supplemented with protease inhibitors and resolved by SDS-PAGE, transferred into PVDF membranes, and subjected to immunoblotting with the primary antibodies described above and secondary detection antibodies. The probed proteins were detected using SuperSignal West Femto Chemiluminescent Substrate (Thermo Fisher Scientific Inc., Rockford, IL). […] Results were analysed using the comparative Ct method and each sample was normalized to the indicated reference gene, to account for any cDNA loading differences. […]

The test system of assay [2] is mouse bone marrow derived macrophages (BMDMs). The experiment in a line: BMDM transwell migration assay. It counts as cell-based, C57BL/6 mouse. Conditions: 10 hours, 10% FBS as chemo-attractant. The text has this:
Figure 6 ERG240 treatment results in reduced macrophage infiltration in CIA and crescentic glomerulonephritis. (a) Inhibition of murine BMDM migration in vitro in the presence of different concentrations of ERG240 by transwell migration assay (left panel, results are presented as the average of four experiments). The drug had no effect on cell viability (right panel, results are presented as the average of three experiments). (b) IHC analysis of CIA joints for expression of F4/80. Representative images show F4/80+ cells (indicated with an arrow). F4/80+ cell quantification is shown on the right panel. (c) Representative images showing glomerular ED1 (rat CD68)-positive cells in ERG240 treated animals following NTN. Percentage of glomerular ED1-positive cell quantification is shown on the right panel. Error bars are s.e.m. […]
The migration of BMDMs was assessed using a modified Bo yden chamber methodology. […]
To determine the effect of ERG240 on the total number of BMDMs, cell s were plated onto a 96-well plate at a density of 5,000 cells per well in complete media and allowed to adhere overnight. The cells were then exposed to various drug concentrations overnight and the cell population was quantified with CyQuant Cell Proliferation kit (Life Technologies) using triplicates, in two independent experiments. For hMDMs, cell viability was determined using the alamarBlue® Assa y (Invitrogen). […]

In the case of `CC(=O)C(C)CCC(=O)O` (stereo not drawn) [ERG240], in assay [1] (LPS 100 ng ml^−1 + ERG240 20 mM), the “IRG1 protein levels (Western blot)” value is reported as “reduction in IRG1 levels”. Also, the “IRG1 mRNA levels” value in assay [1] (LPS-stimulated hMDMs (100 ng ml^−1), ERG240 20 mM) is given as “dramatic reduction”. In addition, the half-inhibitory concentration (IC50) in assay [2] is 5 to 10 mM.
